Experimental data reported in PubChem BioAssay AID1204 (EPA DSSTox, 2008).
Records with an inconclusive call do not appear. Active and inactive are the calls of the source.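 The calls were made as follows: active = relative estrogen receptor binding affinity above 1E-5, where estradiol scores 100; inconclusive = weak binder, under half inhibition at top dose, or affinity below 1E-5; inactive = no binding seen, affinity zero.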

Tested on: estrogen receptor (rat uterine cytosol)
Test: DSSTox (NCTRER) National Center for Toxicological Research Estrogen Receptor Binding Database;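 as to relative binding affinity: ratio of estradiol IC50 over compound IC50 times 100 so estradiol equals 100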
Details: rat uterine cytosol ER competitive binding, RBA; for relative binding affinity: stronger effect = higher value
Source text: Researchers within FDA's National Center for Toxicological Research (NCTR) generated a database of experimental estrogen receptor binding results for the express purpose of developing improved QSAR models to predict ER binding affinities.The NCTR ER database is a structurally diverse set of natural, synthetic, and environmental estrogens covering most known estrogenic classes and spanning a wide range of biological activity. It represents the largest published ER binding database of same-assay results generated in a single laboratory. […] Information on the percent purity and purchasing source for all chemicals are not included in the DSSTox SDF, but can be obtained from the original NCTR ER Source database and Main Citations listed below. The main citation (Fang et al., 2001) surveys the NCTR ER database from a chemical class based, structure-activity relationship (SAR) perspective. Qualitative SAR characteristics of the NCTR ER database are discussed and a set of general hierarchical rules for identifying potential estrogens are presented. The DSSTox NCTRER SDF augments the original NCTR ER database with chemical class and SAR information abstracted from Fang et al. (2001). The DSSTox SDF file supplements the measured ER relative binding affinity for each chemical (ER_RBA) with chemical class assignment to one of 6 major estrogenic classes further divided into 20 subclasses (ChemClass_ERB), along with a qualitative activity measure, ActivityCategory_ER_RBA. A brief narrative SAR rationale pertaining to ER RBA patterns observed by Fang et al. (2001) for each of the 20 subclasses within the database are provided in the field, ActivityCategory_Rationale_ChemClass_ERB. The original NCTR ER database, from which the expanded DSSTox NCTRER was formed, is contained within a larger Endocrine Disruptor Knowledge Base (EDKB) accessible from the FDA Source Website. That website provides online access to a relational database comprised of in vitro and in vivo experimental data for about 2000 natural and synthetic compounds, much of this extracted from the literature and representing testing in many laboratories. Data are included for biological assays that measure estrogenic and androgenic activity. Estrogenic endpoints include in vitro assays for estrogen receptor competitive binding affinity, cell proliferation, and reporter-gene assays, and in vivo assays for uterotrophic activity (i.e., uterine weight gain and vaginal cornification). The database also contains a bibliography of over 1200 citations, many of which include abstracts.
Estrogen receptor relative binding affinity is determined using a competitive receptor binding assay as described in NCTRER Ref (Blair et al., 2000). Briefly, a chemical competes with radiolabeled E2 (i.e., estradiol) for binding to the ER in rat uterine cytosol and the concentration of chemical that causes 50% inhibition of E2 binding (i.e., IC50) is measured. The ER_RBA is calculated by dividing the IC50 of E2 (9X10-10M) by the IC50 of the competitor and multiplying by 100 (E2 RBA = 100). The validated assay tested 1nM E2 with concentrations of competitor ranging from 1nM to 1mM. The larger the ER_RBA values, the greater the binding affinity; ER_RBA > 100 means compound has greater binding affinity than natural ER ligand, E2. […] Activity Score is mapping of LOG_ER_RBA values (ER-RBA>1E-5), spanning activity range [MIN, MAX] onto Integer 20-100 Activity range, where 100 is highest potency and 20 is lowest active potency. If Activity Outcome is "active": Activity Score = 80 * INTEGER[(LOG_ER_RBA - MIN)/(MAX […] MIN)]. If Activity Outcome is "inconclusive" (i.e., slight binder): Activity Score = 5.

[1] = ChemClass_ERB: DES Hexestrol derivatives
[2] = ChemClass_ERB: Steroids With aromatic A ring
[3] = ChemClass_ERB: Diphenylmethanes DDTs
[4] = ChemClass_ERB: Phytoestrogens Flavones
[5] = ChemClass_ERB: Biphenyls nonchlorinated
[6] = ChemClass_ERB: Phytoestrogens Flavanones

Question: How did the relative binding affinity (ChemClass_ERB: Phytoestrogens Coumestans) turn out when `CCc1c(-c2ccc(OC)cc2)c(=O)oc2cc(O)ccc12` was run?
Answer: 0.891%

Question: Which relative binding affinity (ChemClass_ERB: Phytoestrogens Isoflavones) does the source give for `O=c1c(-c2ccc(O)cc2)coc2cc(O)ccc12` here?
Answer: 0.022%

Question: How did the relative binding affinity [1] turn out when `CCC(c1ccc(O)cc1)C(CC)c1ccc(OC)cc1` (stereo not given) was run?
Answer: 9.33%

Question: With `COC(=O)c1ccccc1C(=O)OC` as the molecule, how does the outcome (ChemClass_ERB: Misc) read?
Answer: inactive

Question: `OCCCCCCCCO` was tested. Which outcome (ChemClass_ERB: Misc) did it give?
Answer: inactive

Question: `C#C[C@]1(O)CC[C@H]2[C@@H]3CCc4cc(OC)ccc4[C@H]3CC[C@@]21C` was tested. Which relative binding affinity [2] did it give?
Answer: 2.24%

Question: Which outcome (ChemClass_ERB: Misc) does the source give for `c1ccc2c(c1)OCCOCCOc1ccccc1OCCOCCO2` here?
Answer: inactive

Question: `C[Si](C)(Cc1ccccc1)O[Si](C)(C)Cc1ccccc1` was tested. Which outcome (ChemClass_ERB: Misc) did it give?
Answer: inactive

Question: With `CC[C@@H](c1ccc2cc(O)ccc2c1)C(C)(C)C(=O)O` as the molecule, how does the relative binding affinity (ChemClass_ERB: Misc) read?
Answer: 0.955%

Question: `COc1ccc(C(c2ccc(O)cc2)C(Cl)(Cl)Cl)cc1` (stereo not given) was tested. Which relative binding affinity [3] did it give?
Answer: 0.129%

Question: How did the relative binding affinity [2] turn out when `CCCCN(C)C(=O)CCCCCCCCCC[C@@H]1Cc2cc(O)ccc2[C@H]2CC[C@]3(C)[C@@H](O)CC[C@H]3[C@H]12` was run?
Answer: 14.4%

Question: Which relative binding affinity [1] does the source give for `CCC(c1ccc(O)c(O)c1)C(CC)c1ccc(O)c(O)c1` (stereo not given) here?
Answer: 15.5%

Question: How did the relative binding affinity (ChemClass_ERB: DES Triphenylethylenes) turn out when `C(=C(c1ccccc1)c1ccccc1)c1ccccc1` was run?
Answer: 0.00165%

Question: `C=CC1(C)OC(=O)N(c2cc(Cl)cc(Cl)c2)C1=O` (stereo not given) was tested. Which outcome (ChemClass_ERB: Misc) did it give?
Answer: inactive

Question: For `O=c1c(O)c(-c2ccc(O)cc2)oc2ccc(O)cc12`, which relative binding affinity [4] is on record?
Answer: 0.447%

Question: `C[C@]12CC[C@@H]3c4ccc(O)cc4C[C@@H](CCCCCCCCCS(=O)CCCC(F)(F)C(F)(F)F)[C@H]3[C@@H]1CC[C@@H]2O` (stereo not given in full) was tested. Which relative binding affinity [2] did it give?
Answer: 37.1%

Question: How did the outcome (ChemClass_ERB: Misc) turn out when `CCOC(=O)/C=C/c1ccccc1` was run?
Answer: inactive

Question: For `Clc1ccc(C(c2ccc(Cl)cc2)C(Cl)Cl)cc1`, which outcome [3] is on record?
Answer: inactive

Question: With `C[Si](C)(O[Si](C)(C)c1ccccc1)c1ccccc1` as the molecule, how does the relative binding affinity (ChemClass_ERB: Misc) read?
Answer: 0.00069%

Question: Which relative binding affinity [1] does the source give for `C/C=C(/C(=C/C)c1ccc(O)cc1)c1ccc(O)cc1` here?
Answer: 37.1%

Question: With `CCNc1nc(Cl)nc(NCC)n1` as the molecule, how does the outcome (ChemClass_ERB: Misc) read?
Answer: inactive

Question: Which outcome (ChemClass_ERB: Biphenyls PCBs) does the source give for `Clc1ccc(-c2ccc(Cl)cc2Cl)c(Cl)c1` here?
Answer: inactive

Question: Which relative binding affinity [2] does the source give for `C[C@]12CC[C@@H]3c4cc(O)c(O)cc4CC[C@H]3[C@@H]1CC[C@@H]2O` here?
Answer: 29.5%

Question: With `O=c1c(O)c(-c2cc(O)c(O)c(O)c2)oc2cc(O)cc(O)c12` as the molecule, how does the relative binding affinity [4] read?
Answer: 0.00177%

Question: For `Clc1ccc(-c2ccc(Cl)cc2)cc1`, which outcome (ChemClass_ERB: Biphenyls PCBs) is on record?
Answer: inactive

Question: How did the outcome (ChemClass_ERB: Misc) turn out when `ClC1(Cl)C2(Cl)C3(Cl)C4(Cl)C(Cl)(Cl)C5(Cl)C3(Cl)C1(Cl)C5(Cl)C24Cl` (stereo not given) was run?
Answer: inactive

Question: Which outcome (ChemClass_ERB: Misc) does the source give for `CCCCOC(=O)c1ccccc1C(=O)OCCCC` here?
Answer: inactive

Question: `Oc1ccccc1-c1ccccc1` was tested. Which outcome [5] did it give?
Answer: inactive

Question: Which outcome (ChemClass_ERB: Misc) does the source give for `O=C(O)CCCCCCC(=O)O` here?
Answer: inactive

Question: For `CCCOC(=O)c1ccc(O)cc1`, which relative binding affinity (ChemClass_ERB: Phenols Parabens) is on record?
Answer: 0.0006%

Question: `CNC(=O)Oc1cccc2ccccc12` was tested. Which outcome (ChemClass_ERB: Misc) did it give?
Answer: inactive

Question: `CCCCCCCCCCCCc1ccc(O)cc1` was tested. Which relative binding affinity (ChemClass_ERB: Phenols Alkyl) did it give?
Answer: 0.0186%

Question: With `O=c1c(O)c(-c2ccc(O)cc2O)oc2cc(O)cc(O)c12` as the molecule, how does the relative binding affinity [4] read?
Answer: 0.00081%

Question: With `O=C(O)/C=C/c1ccccc1` as the molecule, how does the outcome (ChemClass_ERB: Misc) read?
Answer: inactive

Question: Which outcome (ChemClass_ERB: Misc) does the source give for `CCCCCCCCOC(=O)c1ccccc1C(=O)OCCCCCCCC` here?
Answer: inactive

Question: `O=C1CC(c2cccc(O)c2)Oc2ccccc21` (stereo not given) was tested. Which relative binding affinity [6] did it give?
Answer: 0.00165%

Question: For `C/C(=C(/C)c1ccc(O)cc1)c1ccc(O)cc1`, which relative binding affinity (ChemClass_ERB: DES Derivatives) is on record?
Answer: 14.4%

Question: For `NCCc1ccc(O)c(O)c1`, which outcome (ChemClass_ERB: Misc) is on record?
Answer: inactive

Question: How did the relative binding affinity (ChemClass_ERB: Phytoestrogens Mycoestrogens) turn out when `C[C@H]1CCC[C@H](O)CCCCCc2cc(O)cc(O)c2C(=O)O1` was run?
Answer: 30.2%

Question: For `CCC(C)c1ccccc1` (stereo not given), which outcome (ChemClass_ERB: Misc) is on record?
Answer: inactive

Question: For `CC/C(=C(/CC)c1ccc(OC)cc1)c1ccc(OC)cc1`, which relative binding affinity (ChemClass_ERB: DES Derivatives) is on record?
Answer: 0.056%

Question: With `O=c1cc(-c2ccccc2)oc2ccc(O)cc12` as the molecule, how does the relative binding affinity [4] read?
Answer: 0.00038%

Question: For `CC(C)COC(=O)c1ccccc1C(=O)OCC(C)C`, which outcome (ChemClass_ERB: Misc) is on record?
Answer: inactive

Question: With `Oc1cccc(-c2ccccc2)c1` as the molecule, how does the relative binding affinity [5] read?
Answer: 0.00036%

Question: For `O=Cc1ccco1`, which outcome (ChemClass_ERB: Misc) is on record?
Answer: inactive

Question: With `Oc1ccc(-c2ccccc2)cc1` as the molecule, how does the relative binding affinity [5] read?
Answer: 0.00091%

Question: For `O=C1c2c(O)cc(O)cc2O[C@H](c2ccc(O)c(O)c2)[C@H]1O`, which outcome [6] is on record?
Answer: inactive

Question: Which relative binding affinity (ChemClass_ERB: Phenols Alkyl) does the source give for `Cc1cc(O)ccc1Cl` here?
Answer: 0.00041%

Question: Which relative binding affinity [4] does the source give for `O=c1c(O)c(-c2ccc(O)c(O)c2)oc2cc(O)ccc12` here?
Answer: 0.00446%

Question: With `COc1ccc2[nH]cc(CCNC(C)=O)c2c1` as the molecule, how does the outcome (ChemClass_ERB: Misc) read?
Answer: inactive
